In one data set the test system is MCF7. The data set is described as follows: MTT cytotoxicity assay, MCF7. Type of data set: cell-based, human. The note with it: Homo sapiens, MCF7, 72 h, read-out: Cytotoxicity (IC50). The protocol:
Two human breast cancer cell lines (MDA-MB-231 and MCF7) and one human breast non-tumorigenic epithelial cell line (MCF-10A) were maintained in a DMEM high glucose culture medium supplemented with 10% fetal bovine serum (FBS) and 2 mM L-glutamine. The cells were grown in a humidified atmosphere of 5% CO2 and 95% air at 37 °C . The culture medi um w as changed every 2–4 days depending on cell density. Cell cultures were passaged once a week using 0.125% trypsin-EDTA to detach the cells from culture flasks/dishes.
The human colorectal cancer cell line HCT116 was maintained in McCoy’s 5A (modified) medium supplemented with 10% fetal bovine serum (FBS). The human embryonic kidney (HEK293T and HEK293 FRT TRex) cell line was maintained in DMEM high glucose culture medium supplemented with 10% fetal bovine serum (FBS).
HepG2 cells were cultured in DMEM supplemented with 10% fetal bovine serum and 2 mM L-glutamine at 37°C under 5% CO2.
Viable cells were counted with a hemocytometer immediately before each experiment. Experiments were done in triplicate. First, 100 μL of MCF7 cells at the density of 50,000 cells/mL were seeded in a 96-well plate (5,000 cells/well), which was incubated at 37 °C and 5% CO2 atmosphere for 24 h. The compounds were dissolved in DMSO (dimethyl sulfoxide) to make drug stocks (10 mM). The stock solutions were diluted with the complete DMEM high glucose culture medium to make a series of gradient fresh working solutions right before each test. Subsequently, the cells were treated with 100 μL of the freshly made gradient working solution in a total volume of 200 μL/well for 72 h. After that, the media were discarded and 200 μL of the fresh complete medium containing 10% of MTT stock solution (5 mg/mL) was added to each well. The plate was then incubated at 37 °C and 5% CO2 for 3 h. Next, 180 μL of the medium was discarded from each well , and 180 μL of DMSO was added to each well to dissol ve formazan crystals. Absorbance of formazan was detected by a microplate reader (BioTek Synergy H1) at 570 nm with 650 nm as the reference wavelength. The percentage of viability compared to the negative control (DMSO-treated cells) was determined . GraphPad Prism 6 software was used to make a plot of %
(Tetrazolium dyes change colour on reduction, which living cells bring about.)

Data set [1] in a line: AlamarBlue cytotoxicity assay, MCF-10A. Type of data set: cell-based, human. The note with it: human. The protocol: AlamarBlue Cytotoxicity Assay
MDA-MB-231, MCF-10A and HCT116. Viable cells were counted with a hemocytometer immediately before each experiment . Experiments were done in triplicate. First, 100 μL of MDA-MB-231 cells or MCF-10A cells at the density of 50,000 cells/mL was seeded in a 96-well plate (5,000 cells/well) and then incubated at 37 °C and 5% CO2 for 24 h. The compounds were dissolved in DMSO (dimethyl sulfoxide) to make drug stocks (10 mM). The stock solutions were diluted with the complete DMEM high glucose culture medium to make a series of gradient fresh working solutions right before each test. Subsequently, the cells were treated with 100 μL of the freshly made gradient working solution in a total volume of 200 μL/well for 72 h. After that, the media were discarded and 200 μL of the fresh complete medium containing 10% of AlamarBlue (resazurin) stock solution was added to each well. The plate was then incubated at 37 °C and 5% CO2 for another 3 h. Emission of each well at 620 nm was detected by a microplate reader (BioTek Synergy H1) at excitation 580 nm. […]
Microplate Reader. The percentage of viability compared to the negative control (DMSO-treated cells) […]
was determined. […]
On the technique in general: Resazurin is reduced to fluorescent resorufin, in cell work by metabolically active cells.

The subject of a further data set is Sec61α. Kind of data set: Competition with CT7 photo-affinity labeling of Sec61α in sheep rough microsomes. Type of data set: binding. The note with it: 10 μM compound, 100 nM CT7, sheep rough microsomes. How it is done: MDA-MB-231 cells were seeded on fibronectin-coated coverslips at 70% confluency in a 48-well plate and cultured at 37 °C and 5% CO2. After 24 h, culture medium was replaced with fresh medium containing a 20 µM competitor or an equal volume of DMSO vehicle for 30 min at 37 °C and 5% CO2, followed by addition of 0.2 µM (final concentration) fluorescent probe 12. After 1 h incubation at 37 °C and 5% CO2, the coverslips were mounted onto a glass slide with a mounting medium with or without 0.5 µg/ml DAPI.
The fluorescent images were acquired with a confocal microscope (Leica TCS SP5) using 405 nm excitation and 562 nm excitation. For the ER co-localization studies, 1 uM ER-Tracker™ Blue-White DPX was added to the medium after 1 h incubation with probe 12. After 5 min incubation, the coverslips were mounted onto a glass slide and the images were acquired as described above.
CT7 photo-affinity labeling and click chemistry were done as previously described.14 Briefly, SRMs (sheep rough microsomes, isolated as described in reference15) containing 100 nM Sec61 were treated with 10 µM ipomoeassin F/mycolactone or 1% DMSO for 30 min at 0°C, followed by incubation with 100 nM CT7 for 10 min RT. Samples were then photolyzed for 10 min and crosslinked proteins were detected by click chemistry, SDS-PAGE, and in-gel fluorescent scanning (Typhoon Trio, GE Healthcare). […]

Data set [2] relates to TNF production by RAW264.7 cells. The data set is described as follows: TNF production washout assay in LPS-stimulated RAW264.7 cells. Type of data set: cell-based. The note with it: 250 nM ipomoeassin F, 125 ng/mL mycolactone; for TNF production after 24 h washout: 1 h incubation, washed, 24 h recovery, then LPS 4 h; for TNF production, direct assay: 1 h preincubation, then 100 ng/mL LPS 4 h. How it is done: The reversibility of the inhibition of secreted protein production by ipomoeassin F was determined by following the production of TNF in RAW264.7 cells as described before.22 Briefly, RAW264.7 cells were maintained at 37 °C and 5% CO2 in high glucose DMEM (Merck), supplemented with 10% heat-inactivated FBS (GIBCO). Cells were plated into 24 well plates at a concentration of 1 x 10^5/ml 24 hour prior to assay, then incubated for 1 hour in the presence or absence of 125 ng/ml mycolactone, 250 nM Ipomoeassin F or DMSO carrier. Cells were either stimulated directly with 100 ng/ml TLR-grade LPS (Enzo) or washed 3 times with medium and incubated 24 hour, then stimulated with LPS. In each case, cells were incubated with LPS for 4 hour then the supernatants were removed. The concentration of TNF in supernatants was quantified by ELISA (eBioscience).

Each structure is given as a SMILES string. Read-outs that look alike come from different tables or passages of the source.

As usually defined, the IC50 is the concentration needed to halve the response being measured.

As to `C/C=C(\C)C(=O)O[C@H]1[C@H](OC(=O)/C=C/c2ccc(OCc3cn(CCOCCOCCOCCNC(=O)CCCC[C@@H]4SC[C@@H]5NC(=O)N[C@@H]54)nn3)cc2)[C@@H](O)[C@@H]2O[C@H]3[C@H](O[C@@H](CCCCC)CCCCCCC(=O)CCC(=O)OC[C@H]1O2)O[C@H](C)[C@H](OC(C)=O)[C@@H]3O` [compound 5], the results for the IC50 (in the data set with MCF7 (MTT); in data set [1] (72 h)) were 187 nM and 21.7 nM, respectively.

As to `CC(=C\C=C\C(C)=C\[C@H](O)[C@@H](O)C[C@H](C)O)/C=C(C)/C=C/C(=O)O[C@H]1CCCC(=O)O[C@@H]([C@@H](C)C/C(C)=C/[C@@H](C)[C@H](O)C[C@@H](C)O)C/C=C(\C)C[C@@H]1C` [mycolactone, reference compound], in the data set with Sec61α, the “competition with CT7 photo-cross-linking to Sec61α” value was “efficiently competes with CT7”. Further, in data set [2], the “TNF production after 24 h washout” value is “not to be restored” and the “TNF production, direct assay” value is “completely block TNF production”.

Take `C/C=C(\C)C(=O)O[C@@H]1[C@@H](O)[C@@H]2O[C@H]3[C@H](O[C@@H](CCCCC)CCCCCCC(=O)CCC(=O)OC[C@@H](O2)[C@H]1OC(=O)/C=C/c1ccccc1)O[C@H](C)[C@H](OC(C)=O)[C@@H]3O` [ipomoeassin F]: in the data set with MCF7, the IC50 turned out to be 36.4 nM. In addition, in the data set with Sec61α, the “competition with CT7 photo-cross-linking to Sec61α” value is recorded as “similarly potent competition”. In data set [2], the “TNF production after 24 h washout” value is “restored, albeit at a reduced level” and the “TNF production, direct assay” value is “similarly blocked TNF production”. In addition, in data set [1], the concentration for half-maximal inhibition (IC50) at 72 h turned out to be 5.3 nM.
